# Values quoted from earlier work, collected in patent publication US20250194589A1, “AGROCHEMICAL EMULSIFIABLE COMPOSITION” (priority 2022, published 2025).
# Read-outs that look alike come from different tables or passages of the source.
# Columns and labels:
# [1] = not given; remark: listed apart in the source
# [2] = measurement method: Flask shaking
molecule,measurement,setting,value
Cc1c(COC(=O)[C@@H]2[C@H](/C=C(\Cl)C(F)(F)F)C2(C)C)cccc1-c1ccccc1 (racemic) [Bifenthrin],LogPow,measurement method: HPLC,6.6
same,Degree of water-solubility,[1]; 20-25° C.,<0.1 ng/mL
Cc1c(F)c(F)c(COC(=O)[C@@H]2[C@H](/C=C(\Cl)C(F)(F)F)C2(C)C)c(F)c1F (racemic) [Tefluthrin],LogPow,measurement method not printed,6.4
"C/C(=N\C#N)N(C)Cc1ccc(Cl)nc1 [Acetamiprid, acetamiprid]",LogPow,measurement method not printed,Acetamiprid (LogPow = 0.8)
same,LogPow,"measurement method not printed, listed as acetamiprid",0.8
CC1(C)[C@H](C(=O)O[C@H](C#N)c2cccc(Oc3ccccc3)c2)[C@@H]1/C=C\C(=O)OC(C(F)(F)F)C(F)(F)F [Acrinathrin],LogPow,[2],5.6
CCCOc1cc(C(F)(F)F)ccc1O[C@H]1C[C@H]2CCC[C@@H](C1)N2Oc1ccc(C(F)(F)F)cn1 [Acynonapyr],LogPow,measurement method not printed,6.5
same,Degree of water-solubility,[1]; 20° C.,0.889 ng/mL
Cc1ccc(/N=C/N(C)/C=N/c2ccc(C)cc2C)c(C)c1 [Amitraz],LogPow,measurement method not printed,5.5
same,Degree of water-solubility,[1]; 25° C.,94 ng/mL
CCOC(=O)CCN(SN(C)C(=O)Oc1cccc2c1OC(C)(C)C2)C(C)C [Benfuracarb],LogPow,[2],4.22
CCOP(=O)(SC(C)CC)SC(C)CC (stereo not drawn) [Cadusafos],LogPow,measurement method: HPLC,4.08
CCCCN(CCCC)SN(C)C(=O)Oc1cccc2c1OC(C)(C)C2 [Carbosulfan],LogPow,measurement method not printed,5.45
same,Degree of water-solubility,[1]; 25° C.,3000 ng/mL
CCOP(=S)(OCC)Oc1nc(Cl)c(Cl)cc1Cl [Chlorpyrifos],LogPow,[2],4.70
same,Degree of water-solubility,[1]; 25° C.,941 ng/mL
Clc1ccccc1-c1nnc(-c2ccccc2Cl)nn1 [Clofentezine],LogPow,measurement method: HPLC,4.1
Cc1nn(C)c(/C(OC(=O)C(C)(C)C)=C(\C#N)c2ccc(C(C)(C)C)cc2)c1C [Cyenopyrafen],LogPow,measurement method: HPLC,5.6
same,Degree of water-solubility,[1]; 20° C.,300 ng/mL
COCCOC(=O)C(C#N)(C(=O)c1ccccc1C(F)(F)F)c1ccc(C(C)(C)C)cc1 (stereo not drawn) [Cyflumetofen],LogPow,measurement method: HPLC,4.3
CC1(C)C(C=C(Cl)Cl)C1C(=O)OC(C#N)c1ccc(F)c(Oc2ccccc2)c1 (stereo not drawn) [Cyfluthrin],LogPow,measurement method not printed,6.00
CC1(C)C(/C=C(\Cl)C(F)(F)F)C1C(=O)OC(C#N)c1cccc(Oc2ccccc2)c1 (stereo not drawn) [Cyhalothrin],LogPow,measurement method not printed,6.9
same,Degree of water-solubility,[1]; 20° C.,4.2 ng/mL
ClC1=C(Cl)C(Cl)(C2(Cl)C(Cl)=C(Cl)C(Cl)=C2Cl)C(Cl)=C1Cl [Dienochlor],LogPow,measurement method not printed,7.2
same,Degree of water-solubility,[1]; 25° C.,26 ng/mL
CCOc1ccc(C(C)(C)COCc2cccc(Oc3ccccc3)c2)cc1 [Etofenprox],LogPow,measurement method: HPLC,6.9
same,Degree of water-solubility,[1]; 20° C.,22.5 ng/mL
CCOc1cc(C(C)(C)C)ccc1C1COC(c2c(F)cccc2F)=N1 (stereo not drawn) [Etoxazole],LogPow,measurement method not printed,5.52 ± 0.58
same,Degree of water-solubility,[1]; 20° C.,70.4 ng/mL
CC(C)(C)c1ccc(CCOc2ncnc3ccccc23)cc1 [Fenazaquin],LogPow,measurement method not printed,5.71
CC(C)C(C(=O)OC(C#N)c1cccc(Oc2ccccc2)c1)c1ccc(Cl)cc1 (stereo not drawn) [Fenvalerate],LogPow,measurement method not printed,6.53
CC(C)[C@H](C(=O)OC(C#N)c1cccc(Oc2ccccc2)c1)c1ccc(OC(F)F)cc1 (stereo partly drawn) [Flucythrinate],LogPow,measurement method not printed,4.74
CC(C)[C@H](Nc1ccc(C(F)(F)F)cc1Cl)C(=O)OC(C#N)c1cccc(Oc2ccccc2)c1 (stereo partly drawn) [Fluvalinate],LogPow,[2],4.26
same,Degree of water-solubility,[1]; 20° C.,1.12 ng/mL
CON=CNC(=O)c1ccc(C2=NOC(c3cc(Cl)cc(Cl)c3)(C(F)(F)F)C2)cc1C (stereo not drawn) [Fluxametamide],LogPow,measurement method: HPLC,5.0
same,Degree of water-solubility,[1]; 20° C.,54 ng/mL
COC(=O)N(C(=O)N1CO[C@@]2(C(=O)OC)Cc3cc(Cl)ccc3C2=N1)c1ccc(OC(F)(F)F)cc1 [Indoxacarb],LogPow,[2],4.65
same,Degree of water-solubility,[1]; 25° C.,200 ng/mL
O=C(NC(=O)c1c(F)cccc1F)Nc1cc(Cl)c(OC(F)(F)C(F)C(F)(F)F)cc1Cl (stereo not drawn) [Lufenuron],LogPow,measurement method: HPLC,5.12
same,Degree of water-solubility,[1]; 25° C.,<60 ng/mL
O=C(NC(=O)c1c(F)cccc1F)Nc1ccc(OC(F)(F)C(F)OC(F)(F)F)c(Cl)c1 (stereo not drawn) [Novaluron],LogPow,measurement method: HPLC,4.3
same,Degree of water-solubility,[1]; 20° C.,3 ng/mL
CC1(C)C(C=C(Cl)Cl)C1C(=O)OCc1cccc(Oc2ccccc2)c1 (stereo not drawn) [Permethrin],LogPow,[2],6.36
CCCSP(=O)(OCC)Oc1ccc(Br)cc1Cl (stereo not drawn) [Profenofos],LogPow,measurement method not printed,4.435
CCCSP(=S)(OCC)Oc1ccc(Cl)cc1Cl (stereo not drawn) [Prothiofos],LogPow,[2],5.67
COC(c1ccc(N(C(=O)c2c(C)nn(C)c2C)C(=O)C(C)C)cc1CC(C)C)(C(F)(F)F)C(F)(F)F [Pyflubumide],LogPow,[2],5.34
same,Degree of water-solubility,[1]; 20° C.,270 ng/mL
FC(F)(F)c1ccc(OCCCOc2c(Cl)cc(OCC=C(Cl)Cl)cc2Cl)nc1 [Pyridalyl],LogPow,measurement method: HPLC,8.1
same,Degree of water-solubility,[1]; 25° C.,0.15 ng/mL
CCC(C)(C)C(=O)OC1=C(c2ccc(Cl)cc2Cl)C(=O)OC12CCCCC2 [Spirodiclofen],LogPow,[2],5.83
same,Degree of water-solubility,[1]; 20° C.,50 ng/mL
Cc1cc(C)c(C2=C(OC(=O)CC(C)(C)C)C3(CCCC3)OC2=O)c(C)c1 [Spiromesifen],LogPow,measurement method: HPLC,4.55
same,Degree of water-solubility,[1]; 20° C.,130 ng/mL
CCc1nn(C)c(C(=O)NCc2ccc(C(C)(C)C)cc2)c1Cl [Tebufenpyrad],LogPow,[2],4.93
CCc1nn(C)c(C(=O)NCc2ccc(Oc3ccc(C)cc3)cc2)c1Cl [Tolfenpyrad],LogPow,measurement method not printed,Tolfenpyrad (LogPow = 5.61)
same,LogPow,"measurement method not printed, listed as tolfenpyrad",5.61
same,LogPow,[2],5.6
same,Degree of water-solubility,[1]; 25° C.,87 ng/mL
Abamectin,LogPow,[2],4.4 ± 0.3
same,Degree of water-solubility,[1]; 25° C.,1210 ng/mL
Emamectin benzoate,LogPow,measurement method not printed,5.7
Lepimectin,LogPow,measurement method: HPLC,6.5
same,Degree of water-solubility,[1]; 25° C.,103.47 ng/mL
Milbemectin [Milbemectin (M.A3)],LogPow,[2],>4.94
same,Degree of water-solubility,[1]; 20° C.,880 ng/mL
Milbemectin [Milbemectin (M.A4)],LogPow,[2],>5.06
same,Degree of water-solubility,[1]; 20° C.,7200 ng/mL
Pyrethrin,LogPow,measurement method not printed,5.6
same,Degree of water-solubility,[1]; temperature not given,9000 ng/mL
